Measured values: paper PMC11506537, “An 11-mer Synthetic Peptide Suppressing Aggregation of Aβ25-35 and Resolving Its Aggregated Form Improves Test Performance in an Aβ25-35-Induced Alzheimer’s Mouse Model” (Biomolecules, 2024)
Where a SMILES comes first, the peptide text is derived from it.

Assays:
[1] = system: u-proMMP-7; conditions: cited from earlier work
Description: Chaperones are potential drug candidates for folding diseases, such as AD and Parkinson’s disease, which are caused by protein aggregation. In recent years, research has focused on low-molecular-weight chemical chaperones rather than on chaperone proteins. Biochemical methods are used to screen for chemical chaperones with the aim of developing therapeutic agents for lysosomal diseases, which are ...

[2] = Solubility; type: physicochemical; conditions: stated without data
[3] = biological target: T1, Aβ25-35 (Homo sapiens, UniProt P05067); assay: ThT assay, inhibition of Aβ25-35 aggregation; type: biochemical; conditions: for IC50: 100 µM Aβ25-35, PBS, 37 °C, 4 h, ThT fluorescence, n = 3
T1 construct: made in house; host or cells: chemical solid-phase (Fmoc) peptide synthesis; no expression host
Procedure: To perform the ThT assay to evaluate aggregation, Aβ25-35 (final concentration of 100 μM) was incubated with ThT solution (final concentration of 10 μM) in Phosphate-buffered saline (PBS), pH 7.4. The ThT signal was monitored by measuring the fluorescence emission at 480 nm for 10 s when excited at 444 nm using Cytation 5 (BioTek, Vermont, WI, USA) at 37 °C [41]. Aggregated Aβ25-35 (100 μM) peptides were prepared by incubating for 18 h in PBS.
We also evaluated inhibitory effects in a time-dependent manner. The fluorescence intensity of the reaction mixture of peptide and Aβ25-35 was traced for 120 min at 15 min intervals.
Therefore, we evaluated the concentration-dependent aggregation inhibitory effect of YS-RD11 and YS-RE16 on Aβ25-35. Various concentrations of the peptides (YS-RD11; 1 to 100 µM, YS-RE16; 0.01 to 10 µM) were incubated independently with 100 µM Aβ25-35 (final con. 100 µM) in PBS at 37 °C. The fluorescence intensity of reaction mixtures was measured after 4 h.

[4] = system: A549 cells; assay: A549 cell viability, WST-8 assay; conditions: 0.1 mg/mL peptide, 72 h, WST-8, n = 4; compared with FLAG peptide
Procedure: The human lung cancer cell line, A549, was obtained from the Riken Cell Bank (Ibaraki, Japan). The cells were cultured as described previously [30, 43]. Briefly, A549 cells (4 × 10^3 cells/well) were seeded into 96-well plates and maintained in Dulbecco’s modified Eagle’s medium (DMEM) supplemented with 10% fetal bovine serum, 100 units/mL penicillin, and 100 μg/mL streptomycin at 37 °C in a humidified atmosphere with 5% CO2. […] After incubation for 72 h, the medium was exchanged for 110 μL of medium containing 10 μL WST-8 (water-soluble tetrazolium salt WST-8) reagent and 100 μL DMEM). The cells were further incubated for 1 h, the absorbance was determined at 450 nm with a reference wavelength of 620 nm using a SPECTRA max Plus384 microplate reader (Molecular Devices, LCC, San Jose, CA, USA).

[5] = system: aggregated Aβ25-35; assay: SEM, resolution of aggregated Aβ25-35; type: biochemical
Procedure: Aβ25-35 (100 μM) was incubated with YS-RD11 or YS-RE16 in PBS at 37 °C. The reaction mixture was centrifuged at 9000 rpm for 5 min. The supernatant was removed, 200 μL of MilliQ water was added and mixed, and the solution was centrifuged at 9000 rpm for 5 min to obtain a sample for SEM [42]. Aggregated Aβ25-35 (100 μM) peptides were prepared by incubating for 18 h in PBS.
Next, the resolving effect of YS-RD11, YS-RE16, and YS-DE6 on aggregated Aβ25-35 was assessed by observing its shape using SEM.

[6] = system: Aβ42; design: method as in 2 sources, ref 28 = [28]; PMID 30930080; doi:10.1016/j.peptides.2019.03.005; 28. Nakamura R. Konishi M. Taniguchi M. Hatakawa Y. Akizawa T. The discovery of shorter synthetic proteolytic peptides derived from Tob1 protein Peptides 2019 116 71 77 10.1016/j.peptides.2019.03.005 ||| ref 29, 30, 31 = [29]; PMID 31687556; doi:10.1016/j.heliyon.2019.e02454; 29. Hatakawa Y. Nakamura R. Konishi M. Sakane T. Saito M. Akizawa T. Catalytides derived from the Box A region in the ANA/BTG3 protein cleave amyloid-β fragment peptide Heliyon 2019 5 e02454 10.1016/j || [30]; PMID 33816760; doi:10.1002/trc2.12146; 30. Hatakawa Y. Nakamura R. Konishi M. Sakane T. Tanaka A. Matsuda A. Saito M. Akizawa T. Amyloid beta cleavage by ANA-TA9, a synthetic peptide from the ANA/BTG3 Box A region Alzheimers Dement. Transl || [31]; 31. Nakamura R. Konishi M. Hatakawa Y. Saito M. Akizawa T. The Novel Catalytic Peptide, A Synthetic Nona-Peptide (JAL-TA9) Derived from Tob1 Protein, Digests the Amyloid-β Peptide J. R. Sci. 2019 1 30; conditions: cited from earlier work
[7] = design: method as in PMID 30930080; conditions: structure–activity relationship of JAL-AK22; cited from earlier work
[8] = in vivo; cited from earlier work
[9] = system: patients with AD; conditions: cited from earlier work
Description: Alzheimer’s disease (AD) is the most common age-related neurodegenerative disorder worldwide. Amyloid-β (Aβ) 42, which is produced by the cleavage of amyloid precursor protein (APP) by β- or γ-secretases, is considered to cause AD [1, 2, 3]. […] Thus, the current main strategy is to develop Aβ antibodies and vaccines aimed at inhibiting Aβ aggregation. […] Lecanemab, the latest Aβ ant ...

In the case of YKNMRETLVYLTHLDYDDTE [YS-YE20], the “activation of u-proMMP7” value ([1]; screening of 3000 types of peptides, no reference given) is given as “activates u-proMMP7 by acting as a chaperone rather than Catalytide”.

In the case of “KWEGHWYPEKPYKGSGFRCIHI [JAL-AK22, reference compound]”, the “activation of proMMP-7” value [1] is listed as “activates proMMP-7 by cleaving the pro-domain of MMP-7”.

In the case of `CC(C)C[C@H](NC(=O)[C@H](Cc1c[nH]cn1)NC(=O)[C@@H](NC(=O)[C@H](CC(C)C)NC(=O)[C@H](Cc1ccc(O)cc1)NC(=O)[C@@H](NC(=O)[C@H](CC(C)C)NC(=O)[C@@H](NC(=O)[C@H](CCC(=O)O)NC(=O)[C@@H](N)CCCNC(=N)N)[C@@H](C)O)C(C)C)[C@@H](C)O)C(=O)N[C@@H](CC(=O)O)C(=O)O` [YS-RD11] (H-RETLVYLTHLD-OH), the solubility [2] is reported as “high solubility”, the IC50 [3] is reported as ~1500 nM and the “effect on growth of A549 cells” value [4] is reported as “did not show a significant inhibitory effect on the growth of A549 cells”.

With “DYDDTE [YS-DE6, peptide derived from YS-RE20, DYDDTE]” the “amyloid fibrils observed by SEM, peptide 100 µM” value ([5]; 100 µM peptide + 100 µM aggregated Aβ25-35 (18 h), PBS) was “a cluster of amyloid fibrils” and the “effect on Aβ25-35 aggregation, negative control” value ([5]; YS-DE6 as negative control) was “did not show any effect against Aβ25-35 aggregation”.

With `CC(C)C[C@H](NC(=O)[C@H](Cc1c[nH]cn1)NC(=O)[C@@H](NC(=O)[C@H](CC(C)C)NC(=O)[C@H](Cc1ccc(O)cc1)NC(=O)[C@@H](NC(=O)[C@H](CC(C)C)NC(=O)[C@@H](NC(=O)[C@H](CCC(=O)O)NC(=O)[C@@H](N)CCCNC(=N)N)[C@@H](C)O)C(C)C)[C@@H](C)O)C(=O)N[C@@H](CC(=O)O)C(=O)N[C@@H](Cc1ccc(O)cc1)C(=O)N[C@@H](CC(=O)O)C(=O)N[C@@H](CC(=O)O)C(=O)N[C@H](C(=O)N[C@@H](CCC(=O)O)C(=O)O)[C@@H](C)O` [YS-RE16] (H-RETLVYLTHLDYDDTE-OH) the IC50 [3] was ~500 nM and the “effect on growth of A549 cells” value [4] was “did not show a significant inhibitory effect on the growth of A549 cells”.

For YKGSGFRMI [JAL-TA9], the “cleavage of Aβ42” value [6] is given as “cleaved Aβ42 with serine protease-like activity”, the “cleavage of soluble (a-Aβ42) and solid insoluble (s-Aβ42) Aβ42” value [6] is given as “cleaved both the authentic soluble form Aβ42 (a-Aβ42) and the solid insoluble form Aβ42 (s-Aβ42) in the central region” and the auto-proteolytic activity [7] is given as “strongest auto-proteolytic activity”.

For YKNMRETLVYLTHLD [YS-YD15], the “aggregation inhibitory activity against Aβ25-35 (conclusion in words)” value ([3]; ThT, 100 μM peptides, PBS) was “weak inhibitory activity”.

In the case of oxytocin: the peptide oxytocin, the “drug delivery to the brain via nasal application” value [8] is listed as “direct and efficient drug delivery”.

B1: lecanemab: latest Aβ antibody drug approved by the U.S. Food and Drug Administration (antibody, chains of the INN, looked up, V domains shown)
VH: EVQLVESGGGLVQPGGSLRLSCSASGFTFSSFGMHWVRQAPGKGLEWVAYISSGSSTIYYGDTVKGRFTISRDNAKNSLFLQMSSLRAEDTAVYYCAREGGYYYGRSYYTMDYWGQGTTVTVSS
VL: DVVMTQSPLSLPVTPGAPASISCRSSQSIVHSNGNTYLEWYLQKPGQSPKLLIYKVSNRFSGVPDRFSGSGSGTDFTLRISRVEAEDVGIYYCFQGSHVPPTFGPGTKLEIK
For B1, the side effects [9] is given as “cerebral edema and cerebral microhemorrhage” and the “clinical effectiveness by AD stage” value ([9]; patients with AD, no reference at this sentence) is given as “potentially effective in the early stages of AD but is less effective in the later stages”.
